Assay results reported in paper PMC8041284, “Tunable Methacrylamides for Covalent Ligand Directed Release Chemistry” (Journal of the American Chemical Society, 2021).
Like-named read-outs stand apart in the source and are kept apart here.

Target: BTK (Homo sapiens, UniProt Q06187)
Assay: biochemical
[1] = read-out: BTK inhibition (%), 0.75 uM BTK, […] probe 3l, 15 min preincubation

BTK, sequence (Q06187 402-655 limits assumed): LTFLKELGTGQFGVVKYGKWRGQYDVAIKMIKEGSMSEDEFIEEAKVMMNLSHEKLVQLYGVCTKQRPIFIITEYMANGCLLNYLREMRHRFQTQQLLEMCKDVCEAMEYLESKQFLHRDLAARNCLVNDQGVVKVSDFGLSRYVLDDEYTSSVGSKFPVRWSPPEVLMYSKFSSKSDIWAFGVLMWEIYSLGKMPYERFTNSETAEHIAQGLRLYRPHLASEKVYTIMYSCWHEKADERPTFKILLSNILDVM

Structure (SMILES)	inhibition at 10 µM (read-out: BTK inhibition (%)) [%]	inhibition at 10 µM [1] [%]
C[C@](O)(COc1ccc(C#N)cc1)C(=O)Nc1ccc(C#N)c(C(F)(F)F)c1 [PCM-0095045]	-0.8	–
Cc1c(C(C)C)c(=O)n(-c2ccccc2)n1C [PCM-0216024]	–	-11.7
Nc1nc2n[nH]nc2c(=O)[nH]1 [PCM-0085758]	–	4.7
O=C(O)CC(O)C(=O)O (centres unmarked) [PCM-0216336]	–	-11.6
COc1cc2c(cc1OC)[C@H]1[C@@H](C)c3ccc(OC)c(OC)c3CN1CC2 [PCM-0216500]	–	-27
O=c1c(-c2ccc(O)cc2)coc2cc(O[C@@H]3O[C@H](CO)[C@@H](O)[C@H](O)[C@H]3O)ccc12 [PCM-0214779]	–	10.9
CN1C(C(=O)Nc2ccccn2)=C(O)c2sc(Cl)cc2S1(=O)=O [PCM-0090258]	–	-0.9
Cc1ccc(OCC(O)C(C)NC(C)C)c2c1CCC2 (centres unmarked) [PCM-0215619]	–	13.9
CC(=O)N1c2ccc(-c3ccc(C(=O)O)cc3)cc2[C@H](Nc2ccc(Cl)cc2)C[C@@H]1C [PCM-0215400]	–	31.7
CN[C@@H]1[C@H](O[C@H]2[C@H](O[C@H]3[C@H](O)[C@@H](O)[C@H](N=C(N)N)[C@@H](O)[C@@H]3N=C(N)N)O[C@@H](C)[C@]2(O)CO)O[C@@H](CO)[C@H](O)[C@H]1O [PCM-0085923]	–	9.4
CCCCC1C(=O)N(c2ccccc2)N(c2ccccc2)C1=O [PCM-0065475]	–	-17.2
Cc1ccc2c(=O)c3cccc(CC(=O)O)c3oc2c1C [PCM-0095095]	–	-7.8
O=C1[C@H](CC[C@H](O)c2ccc(F)cc2)[C@@H](c2ccc(O)cc2)N1c1ccc(F)cc1 [PCM-0095103]	–	31
CN(C)CCc1c[nH]c2ccc(CS(=O)(=O)N3CCCC3)cc12 [PCM-0090415]	–	-0.8
O=C1c2c(O)cc(O)cc2O[C@H](c2cc(O)c(O)c(O)c2)[C@H]1O [PCM-0094847]	–	-9
NC(=O)c1cccc2[nH]c(-c3ccc([C@@H]4CCCN4)cc3F)nc12 [PCM-0214633]	–	17.1
CC(=O)C1=C(O)C=C2Oc3c(C(C)=O)c(O)c(C)c(O)c3[C@@]2(C)C1=O [PCM-0094808]	–	17.1
CCN1CCN(Cc2ccc(Nc3ncc(F)c(-c4cc(F)c5nc(C)n(C(C)C)c5c4)n3)nc2)CC1 [PCM-0095736]	–	-12.4
COc1cc2oc(-c3ccc(O)cc3)cc(=O)c2c(O)c1[C@@H]1O[C@H](CO)[C@@H](O)[C@H](O)[C@H]1O[C@@H]1O[C@H](CO)[C@@H](O)[C@H](O)[C@H]1O [PCM-0216416]	–	-15.4
CC(=O)c1cc(O)ccc1O [PCM-0216293]	–	-1.5
O=c1[nH]c(=O)n([C@H]2C[C@H](O)[C@@H](CO)O2)cc1I [PCM-0085786]	–	-27.2
O=C(O)[C@H]1O[C@@H](Oc2cc3oc(-c4ccccc4)cc(=O)c3c(O)c2O)[C@H](O)[C@@H](O)[C@@H]1O [PCM-0094823]	–	14.8
CCC1=C[C@@H]2CN3CCc4c([nH]c5ccccc45)[C@@](C(=O)OC)(C2)[C@@H]13 [PCM-0085818]	–	8.6
COC(=O)C[C@](O)(CCC(C)(C)O)C(=O)O[C@@H]1C(OC)=C[C@]23CCCN2CCc2cc4c(cc2[C@H]13)OCO4 [PCM-0216362]	-7.7	–

Structure (SMILES)	inhibition at 10 µM (read-out: BTK inhibition (%)) [%]	inhibition at 10 µM [1] [%]
NC[C@H]1O[C@H](O[C@H]2[C@H](O)[C@@H](O[C@H]3O[C@H](CO)[C@@H](O)[C@H](N)[C@H]3O)[C@H](N)C[C@@H]2N)[C@H](O)[C@@H](O)[C@@H]1O [PCM-0086137]	–	23.8
CCCCN1CCCC[C@H]1C(=O)Nc1c(C)cccc1C [PCM-0214809]	–	-25.7
CC(C)(c1ccc(OCC(O)CO)cc1)c1ccc(OCC(O)CCl)cc1 (centres unmarked) [PCM-0215567]	–	-2.3
O=C[C@H](O)[C@@H](O)[C@H](O)[C@H](O)CO[C@H]1O[C@H](CO[C@H]2O[C@H](CO)[C@H](O)[C@H](O)[C@H]2O)[C@H](O)[C@H](O)[C@H]1O [PCM-0216378]	–	3.9
CCNC(=O)c1noc(-c2cc(C(C)C)c(O)cc2O)c1-c1ccc(CN2CCOCC2)cc1 [PCM-0095017]	–	-0.7
COc1nc(OCc2cccc(-c3ccccc3)c2C)ccc1CNCCNC(C)=O [PCM-0215525]	–	-51.7
CC1=C(/C=C/C(C)=C/C=C/C(C)=C/C(=O)O)C(C)(C)CCC1 [PCM-0065434]	–	-32.7
O=C(NCCCn1ccnc1)c1cc(-c2ccco2)on1 [PCM-0215720]	–	-9.3
CN(C)C(=N)N=C(N)N [PCM-0085761]	–	21.8
CCCC[C@H](CC)COC(=O)/C=C/c1ccc(OC)cc1 [PCM-0090405]	–	6.2
Cc1c(C(=O)NN2CCCCC2)nn(-c2ccc(Cl)cc2Cl)c1-c1ccc(I)cc1 [PCM-0095445]	–	34.2
COC(=O)N[C@H](C(=O)N[C@@H](Cc1ccccc1)[C@@H](O)CN(Cc1ccc(-c2ccccn2)cc1)NC(=O)[C@@H](NC(=O)OC)C(C)(C)C)C(C)(C)C [PCM-0095133]	–	-10.9
COC(=O)C1=C(C)NC(C)=C(C(=O)OC)C1c1ccccc1[N+](=O)[O-] [PCM-0064767]	–	14
CCCC1O[C@@H]2C[C@H]3[C@@H]4CCC5=CC(=O)C=C[C@]5(C)[C@H]4[C@@H](O)C[C@]3(C)[C@]2(C(=O)CO)O1 (some centres unmarked) [PCM-0214610]	–	-13.1
C[C@]12CC[C@@H]3c4ccc(O)cc4C[C@@H](CCCCCCCCC[S+]([O-])CCCC(F)(F)C(F)(F)F)[C@H]3[C@@H]1CC[C@@H]2O (some centres unmarked) [PCM-0214604]	–	15.6
CCCOC(=O)c1cc(O)c(O)c(O)c1 [PCM-0215973]	–	11.6
C1=C2CCCN[C@H]2[C@@H]2C[C@H]1[C@H]1CCCCN1C2 [PCM-0095306]	–	-2.6
COc1cc(-c2cc(-c3ccc(N4CCNCC4)cc3)cnc2C)cc(OC)c1OC [PCM-0215462]	–	-19.3
O=c1[nH]c(=O)c2ncn([C@@H]3O[C@H](CO)[C@@H](O)[C@H]3O)c2[nH]1 [PCM-0216292]	–	13.1
O=C(O)c1ccc(C=C2SC(=S)N(c3cccc(C(F)(F)F)c3)C2=O)cc1 [PCM-0095759]	–	54.1
CC(C)NCC(O)COc1ccc(COCCOC(C)C)cc1 (centres unmarked) [PCM-0064988]	–	-31.9
O=C(c1ccc(OCCCc2cnc[nH]2)cc1)C1CC1 [PCM-0065087]	–	-14.5
CNC(=O)c1cnn(-c2nc(N)c3ncn([C@@H]4O[C@H](CO)[C@@H](O)[C@H]4O)c3n2)c1 [PCM-0216236]	–	5.4
CC(C)(C)c1ccc(S(=O)(=O)NCc2ccc(C(=O)Nc3cccnc3)cc2)cc1 [PCM-0215545]	–	-2.3

Structure (SMILES)	inhibition at 10 µM (read-out: BTK inhibition (%)) [%]	inhibition at 10 µM [1] [%]
Cc1cccn2c(=O)c(-c3nnn[nH]3)cnc12 [PCM-0086031]	–	-17
CC(C)=C[C@H]1C[C@](C)(O)[C@@H]2[C@H]3CC[C@@H]4[C@@]5(C)CC[C@H](O[C@@H]6OC[C@H](O)[C@H](O[C@@H]7O[C@H](CO[C@@H]8O[C@H](CO)[C@@H](O)[C@H](O)[C@H]8O)[C@@H](O)[C@H](O)[C@H]7O[C@@H]7OC[C@@H](O)[C@H](O)[C@H]7O)[C@H]6O[C@@H]6O[C@@H](C)[C@H](O)[C@@H](O)[C@H]6O)C(C)(C)[C@@H]5CC[C@@]4(C)[C@@]34CO[C@@]2(C4)O1 [PCM-0216469]	–	10
C#Cc1cccc(Nc2ncnc3cc(OCCOC)c(OCCOC)cc23)c1 [PCM-0085975]	–	1.7
Nc1nonc1C(=Nc1ccc(F)c(Cl)c1)NO [PCM-0095795]	–	-3.1
C[C@@H](c1ccc2nccn2c1)n1nnc2ncc(-c3cnn(C)c3)nc21 [PCM-0215934]	–	-9.3
Nc1cc(F)ccc1NC(=O)/C=C/c1cnn(C/C=C/c2ccccc2)c1 [PCM-0095774]	–	9.3
CO[C@H]1/C=C/O[C@@]2(C)Oc3c(C)c(O)c4c(O)c(c5c(c4c3C2=O)=NC2(CCN(CC(C)C)CC2)N=5)NC(=O)/C(C)=C\C=C\[C@H](C)[C@H](O)[C@@H](C)[C@@H](O)[C@@H](C)[C@H](OC(C)=O)[C@@H]1C [PCM-0095185]	–	7
O=C(O)CSc1cc(NS(=O)(=O)c2ccc(Br)cc2)c2ccccc2c1O [PCM-0215378]	–	51.7
O=C1C(N(CO)C(=O)NCO)N(CO)C(=O)N1CO (centres unmarked) [PCM-0216098]	–	-5.4
O=C(O)CSc1nnc(Br)n1-c1ccc(C2CC2)c2ccccc12 [PCM-0214823]	–	-21.8
C[C@@H]1O[C@@H](OC[C@H]2O[C@@H](Oc3c(-c4ccc(OCCO)c(OCCO)c4)oc4cc(OCCO)cc(O)c4c3=O)[C@H](O)[C@@H](O)[C@@H]2O)[C@H](O)[C@H](O)[C@H]1O [PCM-0214656]	–	-19.5
C=C1CCC[C@]2(C)C[C@@H]3OC(=O)C(C)=C3C[C@@H]12 [PCM-0216545]	–	-38.6
O=C(/C=C/c1ccc(O)cc1)OC[C@H]1O[C@@H](Oc2c(-c3ccc(O)cc3)oc3cc(O)cc(O)c3c2=O)[C@H](O)[C@@H](O)[C@@H]1O [PCM-0216495]	–	15.3
COc1ccc(C2CNC(=O)C2)cc1OC1CCCC1 (centres unmarked) [PCM-0065474]	–	13.2
C[S+]([O-])c1ccc(-c2nc(-c3ccc(F)cc3)c(-c3ccncc3)[nH]2)cc1 (centres unmarked) [PCM-0095024]	–	18.6
COc1cc2ncnc(Nc3ccc(Cl)cc3F)c2cc1OC [PCM-0095361]	–	31
CC(=O)OCC(=O)[C@@]1(O)[C@H](C)C[C@H]2[C@@H]3CCC4=CC(=O)C=C[C@]4(C)[C@@]3(F)[C@@H](O)C[C@@]21C [PCM-0085852]	–	1.4
Cc1cc(CN2CCN(c3c(Br)cnc4nc(-c5ccc(N6CCN(C)CC6)cc5)[nH]c34)CC2)no1 [PCM-0095479]	–	4.3
O=C(c1ccc(F)cc1)N1CCC[C@H](c2nc(-c3ccc(F)cc3)no2)C1 [PCM-0095385]	–	-13.2
c1csc(-c2ccc(-c3cccs3)s2)c1 [PCM-0215157]	–	0
N[C@@H](Cc1cc(I)c(Oc2cc(I)c(O)c(I)c2)c(I)c1)C(=O)O [PCM-0085937]	–	19.5
c1ccc(Cn2c(-c3ccc(OC[C@H](C4CCNCC4)n4c(-c5ccccc5)nc5ccccc54)cc3)nc3ccccc32)cc1 [PCM-0215350]	–	86.5
Cc1cc(C)nc(SCC(=O)Nc2ncc(Cc3cccc4ccccc34)s2)n1 [PCM-0215537]	–	2.3
